Test results from patent publication US20210220328A1, “PYRROLE DERIVATIVES AS ACC INHIBITORS” (Almirall, S.A., priority 2017, published 2021).

Assays:
[1] = test system: immortalized human sebocyte cell line, SZ95; assay: In vitro assay of inhibition of lipid synthesis; format: cell-based; conditions: 48 h, SZ95 sebocytes
Method in brief: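 Human SZ95 sebocytes were preincubated with compound for 30 min, then stimulated with 75 μM arachidonic acid for 48 h at 37 °C. Neutral lipids were stained with AdipoRed and read by fluorescence (ex 485/em 535). % inhibition was normalized between AA-stimulated and unstimulated cells.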

sebocytes = conditions: Hunt D. et al. J Invest Dermatol. 2017; cited from earlier work
sebaceous gland activity = conditions: Hunt D. et al. J Invest Dermatol. 2017; cited from earlier work
[2] = 75 μM arachidonic acid, AdipoRed, Table 2, finer classes for compounds with IC50 less than 250 nM
[3] = lipid synthesis induced by 75 μM arachidonic acid, AdipoRed fluorescence, Table 1

CCCCCCCCCCC(C)(C)Cc1c[nH]c(C(=O)O)c1F [Example 102, 4-(2,2-Dimethyldodecyl)-3-fluoro-1H-pyrrole-2-carboxylic acid]
IC50 [1, 2]: < 50 nM | IC50 [1, 3]: < 250 nM

CCCCCCCCCCCOc1c[nH]c(C(=O)OCC(F)(F)F)c1F [Example 103, 2,2,2-Trifluoroethyl 3-fluoro-4-(undecyloxy)-1H-pyrrole-2-carboxylate]
IC50 [1, 2]: < 50 nM | IC50 [1, 3]: < 250 nM

CCCCCCCCCCCOc1c[nH]c(C(=O)OCCOCCOCC)c1F [Example 104, 2-(2-Ethoxyethoxy)ethyl 3-fluoro-4-(undecyloxy)-1H-pyrrole-2-carboxylate]
IC50 [1, 2]: 100 to 250 nM | IC50 [1, 3]: < 250 nM

CCCCCCCCCCCOc1c[nH]c(C(=O)OC(C)OC(=O)OC(C)C)c1F (stereo not shown) [Example 105, 1-((Isopropoxycarbonyl)oxy)ethyl 3-fluoro-4-(undecyloxy)-1H-pyrrole-2-carboxylate]
IC50 [1, 2]: < 50 nM | IC50 [1, 3]: < 250 nM

CCCCCCCCCCCOc1c[nH]c(C(=O)OC(C)OC(=O)OCCOC)c1F (stereo not shown) [Example 106, 1-(((2-Methoxyethoxy)carbonyl)oxy)ethyl 3-fluoro-4-(undecyloxy)-1H-pyrrole-2-carboxylate]
IC50 [1, 2]: < 50 nM | IC50 [1, 3]: < 250 nM

CCCCCCCCCCCOc1c[nH]c(C(=O)OC(C)OC(=O)OCCOCCOCC)c1F (stereo not shown) [Example 107, 4-Oxo-3,5,8,11-tetraoxatridecan-2-yl 3-fluoro-4-(undecyloxy)-1H-pyrrole-2-carboxylate]
IC50 [1, 2]: < 50 nM | IC50 [1, 3]: < 250 nM

CCCCCCCCCCCCCc1c[nH]c(C(=O)OCC(F)(F)F)c1Cl [Example 108, 2,2,2-Trifluoroethyl 3-chloro-4-tridecyl-1H-pyrrole-2-carboxylate]
IC50 [1, 3]: 250 to 1000 nM

CCCCCCCCCCCCCc1c[nH]c(C(=O)OCCOCCOCC)c1Cl [Example 109, 2-(2-Ethoxyethoxy)ethyl 3-chloro-4-tridecyl-1H-pyrrole-2-carboxylate]
IC50 [1, 3]: 250 to 1000 nM

CCCCCCCCCCCCCc1c[nH]c(C(=O)OC(C)OC(=O)OC(C)C)c1Cl (stereo not shown) [Example 110, 1-((Isopropoxycarbonyl)oxy)ethyl 3-chloro-4-tridecyl-1H-pyrrole-2-carboxylate]
IC50 [1, 2]: 100 to 250 nM | IC50 [1, 3]: < 250 nM

CCCCCCCCCCCCCc1c[nH]c(C(=O)OC(C)OC(=O)OCCOC)c1Cl (stereo not shown) [Example 111, 1-(((2-methoxyethoxy)carbonyl)oxy)ethyl 3-chloro-4-tridecyl-1H-pyrrole-2-carboxylate]
IC50 [1, 2]: 100 to 250 nM | IC50 [1, 3]: < 250 nM

CCCCCCCCCCCCCc1c[nH]c(C(=O)OC(C)OC(=O)OCCOCCOCC)c1Cl (stereo not shown) [Example 112, 4-Oxo-3,5,8,11-tetraoxatridecan-2-yl 3-chloro-4-tridecyl-1H-pyrrole-2-carboxylate]
IC50 [1, 2]: 100 to 250 nM | IC50 [1, 3]: < 250 nM

CCCCCCCCCCCCc1cc(Cl)c(C(=O)OCC(F)(F)F)[nH]1 [Example 113, 2,2,2-Trifluoroethyl 3-chloro-5-dodecyl-1H-pyrrole-2-carboxylate]
IC50 [1, 3]: 1000 to 5000 nM

CCCCCCCCCCCCc1cc(Cl)c(C(=O)OCCOCCOCC)[nH]1 [Example 114, 2-(2-Ethoxyethoxy)ethyl 3-chloro-5-dodecyl-1H-pyrrole-2-carboxylate]
IC50 [1, 3]: 1000 to 5000 nM

CCCCCCCCCCCCc1cc(Cl)c(C(=O)OC(C)OC(=O)OC(C)C)[nH]1 (stereo not shown) [Example 115, 1-((Isopropoxycarbonyl)oxy)ethyl 3-chloro-5-dodecyl-1H-pyrrole-2-carboxylate]
IC50 [1, 2]: 100 to 250 nM | IC50 [1, 3]: < 250 nM

CCCCCCCCCCCCc1cc(Cl)c(C(=O)OC(C)OC(=O)OCCOC)[nH]1 (stereo not shown) [Example 116, 1-(((2-Methoxyethoxy)carbonyl)oxy)ethyl 3-chloro-5-dodecyl-1H-pyrrole-2-carboxylate]
IC50 [1, 2]: 50 to 100 nM | IC50 [1, 3]: < 250 nM

CCCCCCCCCCCCc1cc(Cl)c(C(=O)OC(C)OC(=O)OCCOCCOCC)[nH]1 (stereo not shown) [Example 117, 4-Oxo-3,5,8,11-tetraoxatridecan-2-yl 3-chloro-5-dodecyl-1H-pyrrole-2-carboxylate]
IC50 [1, 2]: 100 to 250 nM | IC50 [1, 3]: < 250 nM

CCCCCCCCCCCCc1cc(Cl)c(C(=O)OCC(O)CO)[nH]1 (stereo not shown) [Example 118, 2,3-Dihydroxypropyl 3-chloro-5-dodecyl-1H-pyrrole-2-carboxylate]
IC50 [1, 3]: 250 to 1000 nM

CCCCCCCCCCCc1cc(F)c(C(=O)O)[nH]1 [Example 119, 3-Fluoro-5-undecyl-1H-pyrrole-2-carboxylic acid]
IC50 [1, 2]: 50 to 100 nM | IC50 [1, 3]: < 250 nM

CCCCCCCCCCCCCc1cc(F)c(C(=O)O)[nH]1 [Example 120, 3-Fluoro-5-tridecyl-1H-pyrrole-2-carboxylic acid]
IC50 [1, 2]: < 50 nM | IC50 [1, 3]: < 250 nM

CCCCCCCCCCCCCCc1cc(F)c(C(=O)O)[nH]1 [Example 121, 3-Fluoro-5-tetradecyl-1H-pyrrole-2-carboxylic acid]
IC50 [1, 2]: < 50 nM | IC50 [1, 3]: < 250 nM

CCCCCCCCCCCCCCCc1cc(F)c(C(=O)O)[nH]1 [Example 122, 3-Fluoro-5-pentadecyl-1H-pyrrole-2-carboxylic acid]
IC50 [1, 2]: 50 to 100 nM | IC50 [1, 3]: < 250 nM

CCCCCCCCCCCCCCCCc1cc(F)c(C(=O)O)[nH]1 [Example 123, 3-Fluoro-5-hexadecyl-1H-pyrrole-2-carboxylic acid]
IC50 [1, 2]: 50 to 100 nM | IC50 [1, 3]: < 250 nM

CCCCCCCCCCCCCCCCCc1cc(F)c(C(=O)O)[nH]1 [Example 124, 3-Fluoro-5-heptadecyl-1H-pyrrole-2-carboxylic acid]
IC50 [1, 3]: < 250 nM

CCCCCCCCCCCCCCCCCCc1cc(F)c(C(=O)O)[nH]1 [Example 125, 3-Fluoro-5-octadecyl-1H-pyrrole-2-carboxylic acid]
IC50 [1, 3]: < 250 nM

CCCCCCCCCCCCCCCCCCCc1cc(F)c(C(=O)O)[nH]1 [Example 126, 3-Fluoro-5-nonadecyl-1H-pyrrole-2-carboxylic acid]
IC50 [1, 3]: < 250 nM

CCCCCCCCCCC(C)(C)Cc1cc(Cl)c(C(=O)O)[nH]1 [Example 127, 3-Chloro-5-(2,2-dimethyldodecyl)-1H-pyrrole-2-carboxylic acid]
IC50 [1, 2]: < 50 nM | IC50 [1, 3]: 250 to 1000 nM

CCCCCCCCCC(F)(F)CCc1cc(Cl)c(C(=O)O)[nH]1 [Example 128, 3-Chloro-5-(3,3-difluorododecyl)-1H-pyrrole-2-carboxylic acid]
IC50 [1, 2]: < 50 nM | IC50 [1, 3]: 250 to 1000 nM

CCCCCCCCCCCCc1cc(C#N)c(C(=O)O)[nH]1 [Example 129, 3-Cyano-5-dodecyl-1H-pyrrole-2-carboxylic acid]
IC50 [1, 3]: 1000 to 5000 nM

CCCCCCCCCCCCc1cc(Cl)c(C(=O)O)n1C [Example 130, 3-Chloro-5-dodecyl-1-methyl-1H-pyrrole-2-carboxylic acid]
IC50 [1, 2]: 100 to 250 nM | IC50 [1, 3]: > 5000 nM

O=C(O)c1[nH]c(CCCCCCCCCCCCCCF)cc1F [Example 131, 3-Fluoro-5-(14-fluorotetradecyl)-1H-pyrrole-2-carboxylic acid]
IC50 [1, 2]: 100 to 250 nM | IC50 [1, 3]: < 250 nM

CCCCCCCCCCCCCCCCc1c[nH]c(C(=O)O)c1F [Example 132, 3-Fluoro-4-hexadecyl-1H-pyrrole-2-carboxylic acid]
IC50 [1, 2]: < 50 nM | IC50 [1, 3]: < 250 nM

CCCCCCCCCCCCCCOc1ccc(C(=O)OCC(=O)N(C)CC(=O)OCC)o1 [Olumacostat Glasaretil]
potency inhibiting sebum production by sebocytes (sebocytes): low potency | activity in an in vivo model of sebaceous gland activity (sebaceous gland activity): poor activity
